Assay results from PubChem BioAssay AID1963963 (Molecular Pharmacology Branch, DTP, NCI, 2024).
pIC50: −log10 of the molar value. Several values for one entry are separate records, joined by “and”; a condition that tells them apart may be missing. Identical values can stand only once.

Test system: 958667-338-R-J2-PDC tumor spheroids viability
Assay: Anticancer human tumor 958667-338-R-J2-PDC patient-derived colon adenocarcinoma cell line growth inhibition [PI3K]
Conditions: spheroids with HUVEC and MSC; for pIC50: curve of first compound; for viability, T/C: stronger effect = lower value
Text: Combinatorial screen of targeted agents with the PI3K inhibitors inavolisib, alpelisib, duvelisib, and copanlisib in multi-cell type tumor spheroids
A high-throughput screen of multi-cell type tumor spheroids was designed to identify active combinations of targeted small molecules and PI3K pathway inhibitors. Complex spheroids include a stromal component modeled by human endothelial cells (HUVEC) and fibroblasts modeled by human mesenchymal stem cells (MSCs). The concentration ranges selected for each drug and investigational agent were based upon clinically achievable concentrations if the clinical Cmax of the agent was known.
Compounds. The drugs and investigational agents: inavolisib (NSC800729), alpelisib (NSC765974), duvelisib (NSC772469), copanlisib (NSC816437), ipatasertib (NSC767898), afuresertib (NSC778305), talazoparib (NSC767125), sapanisertib (NSC764658), selumetinib (NSC741078), tovorafenib (DAY101, NSC766906), vemurafenib (NSC761431), ravoxertinib (NSC781343), sotorasib (NSC818433), MRTX1133 (NSC 836407), abemaciclib (NSC 768073), palbociclib (NSC758247), venetoclax (NSC 766270), SY5609 (NSC837396), enzalutamide (NSC755605), and darolutamide (NSC825331), were obtained from the National Cancer Institute (NCI) Developmental Therapeutics Program Chemical Repository. The FDA-approved anticancer drug set is available from the NCI Developmental Therapeutics Program. […] The stock solutions were prepared in dimethyl sulfoxide (DMSO, Sigma-Aldrich, St. Louis, MO, cat. D2650) at 800-fold the tested concentration and stored at -70 degrees C prior to their use. All drugs and investigational agents were tested over a range starting from a high concentration at or near the clinical Cmax and decreasing in half-log increments. If the clinical Cmax for an agent had not been determined, the highest concentration tested was 10 microM.
Cell Culture. All cells were maintained in an incubator at 37 degrees C and 5% CO2 with 95% humidity. The PDC lines were cultured according to standard operating procedures established by the NCI PDMR (https://pdmr.cancer.gov/sops/default.htm). All PDCs were thawed and cultured in Matrigel-coated flasks prepared with a working solution of 1X Ham's F-12 nutrient mix, without supplementation (Invitrogen, Waltham, MA, cat. 11765054), 100 U/mL penicillin-streptomycin (Invitrogen, cat. 15140122), and 2.5% Matrigel (Corning Inc., Corning, NY, cat. 354248) for the first three passages. The 354836-022-R-J1-PDC, 475296-252-R-J1-PDC, and 997726-040-R-J2-PDC lines were cultured in 6A media, which includes advanced DMEM/F-12 (Thermo Fisher Scientific, cat. 12634028), 10 mM HEPES (Thermo Fisher Scientific, cat. 15630080), 1X GlutaMAX supplement (Thermo Fisher Scientific, cat. 35050061), 0.1 mg/mL primocin (InvivoGen, San Diego, CA, cat. ant-pm-2), 10% defined fetal bovine serum, heat inactivated (HyClone Laboratories Inc., Logan, UT, cat. SH30070.03HI), 50% L-WRN conditioned media (ATCC, cat. CRL-3276), 1.25 mM N-Acetyl-L-cysteine (Sigma-Aldrich, cat. A9165), 10 mM nicotinamide (Sigma-Aldrich, cat. N0636), 1X B-27 supplement (Thermo Fisher Scientific, cat. 17504044), 1X N-2 supplement (Thermo Fisher Scientific, cat. 17502048), and 10 microM Y-27632 dihydrochloride (Tocris Bioscience, Bristol, United Kingdom, cat. 1254). The 624824-186-R-J2-PDC line was cultured in 6C/Colon 1B media, which includes all 6A media components plus 50 ng/mL human EGF recombinant protein (Thermo Fisher Scientific, cat. PHG0311). […]

[1] = second compound 0.0316 µM, first compound 0.0316 µM
[2] = second compound 0.0316 µM, first compound 0.1 µM
[3] = second compound 0.0316 µM, first compound 0.316 µM
[4] = second compound 0.0316 µM, first compound 1 µM
[5] = second compound 0.0316 µM, first compound 3.16 µM
[6] = second compound 0.0316 µM, first compound 10 µM
[7] = second compound 0.1 µM, first compound 0.0316 µM
[8] = second compound 0.1 µM, first compound 0.1 µM
[9] = second compound 0.1 µM, first compound 0.316 µM
[10] = second compound 0.1 µM, first compound 1 µM
[11] = second compound 0.1 µM, first compound 3.16 µM
[12] = second compound 0.1 µM, first compound 10 µM
[13] = second compound 0.316 µM, first compound 0.0316 µM
[14] = second compound 0.316 µM, first compound 0.1 µM
[15] = second compound 0.316 µM, first compound 0.316 µM
[16] = second compound 0.316 µM, first compound 1 µM
[17] = second compound 0.316 µM, first compound 3.16 µM
[18] = second compound 0.316 µM, first compound 10 µM
[19] = second compound 1 µM, first compound 0.0316 µM
[20] = second compound 1 µM, first compound 0.1 µM
[21] = second compound 1 µM, first compound 0.316 µM
[22] = second compound 1 µM, first compound 1 µM
[23] = second compound 1 µM, first compound 3.16 µM
[24] = second compound 1 µM, first compound 10 µM
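Also: spheroids exposed to compounds for seven days before readout.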

C[C@@H](NC(=O)c1ncnc(N)c1Cl)c1ncc(C(=O)Nc2cc(C(F)(F)F)c(Cl)cn2)s1 + CC(Nc1ncnc2nc[nH]c12)c1cc2cccc(Cl)c2c(=O)n1-c1ccccc1
pIC50 (second compound 0.0316 µM): < 5.00 | pIC50 (second compound 0.1 µM): < 5.00 | pIC50 (second compound 0.316 µM): < 5.00 | pIC50 (second compound 1 µM): < 5.00 | pIC50 (second compound 3.16 µM): < 5.00 | pIC50 (second compound 10 µM): < 5.00 | viability, T/C [1]: 129% | viability, T/C [2]: 114% | viability, T/C [3]: 99.7% | viability, T/C [4]: 95.9% | viability, T/C [5]: 84.1% | viability, T/C [6]: 74.9% | viability, T/C [7]: 98% | viability, T/C [8]: 115% | viability, T/C [9]: 99.9% | viability, T/C [10]: 108% | viability, T/C [11]: 97.6% | viability, T/C [12]: 73.3% | viability, T/C [13]: 98.2% | viability, T/C [14]: 106% | viability, T/C [15]: 96.3% | viability, T/C [16]: 102% | viability, T/C [17]: 94.3% | viability, T/C [18]: 94.3% | viability, T/C [19]: 83.7% | viability, T/C [20]: 93.3% | viability, T/C [21]: 102% | viability, T/C [22]: 100% | viability, T/C [23]: 89.1% | viability, T/C [24]: 73.2% | viability, T/C (second compound 3.16 µM, first compound 0.0316 µM): 112% | viability, T/C (second compound 3.16 µM, first compound 0.1 µM): 89% | viability, T/C (second compound 3.16 µM, first compound 0.316 µM): 96.1% | viability, T/C (second compound 3.16 µM, first compound 1 µM): 82.6% | viability, T/C (second compound 3.16 µM, first compound 3.16 µM): 99.4% | viability, T/C (second compound 3.16 µM, first compound 10 µM): 75.5% | viability, T/C (second compound 10 µM, first compound 0.0316 µM): 110% | viability, T/C (second compound 10 µM, first compound 0.1 µM): 98.5% | viability, T/C (second compound 10 µM, first compound 0.316 µM): 96.5% | viability, T/C (second compound 10 µM, first compound 1 µM): 96.1% | viability, T/C (second compound 10 µM, first compound 3.16 µM): 92.9% | viability, T/C (second compound 10 µM, first compound 10 µM): 107%

CCCS(=O)(=O)Nc1ccc(F)c(C(=O)c2c[nH]c3ncc(-c4ccc(Cl)cc4)cc23)c1F
viability, T/C (compound 0.1 µM): 94.2% and 87.7% and 113% (2×) | viability, T/C (compound 0.316 µM): 107% [middle of 4 runs] | viability, T/C (compound 1 µM): 114% [middle of 4 runs] | viability, T/C (compound 3.16 µM): 116% [middle of 4 runs] | viability, T/C (compound 10 µM): 10.9% [middle of 4 runs] | IC50 (curve of compound): 6.27 µM [middle of 4 runs]

CC1(C)CCC(Nc2ncc(C(F)(F)F)c(-c3c[nH]c4c(P(C)(C)=O)c(C#N)ccc34)n2)CN1 (stereo not given) + CC(Nc1ccc2c(c1)OCCn1cc(N3C(=O)OCC3C(F)F)nc1-2)C(N)=O
pIC50 (second compound 0.00316 µM): 5.34 | pIC50 (second compound 0.01 µM): 5.55 | pIC50 (second compound 0.0316 µM): 5.59 | pIC50 (second compound 0.1 µM): 5.33 | pIC50 (second compound 0.316 µM): 5.77 | pIC50 (second compound 1 µM): 5.79 | viability, T/C (second compound 0.00316 µM, first compound 0.0316 µM): 108% | viability, T/C (second compound 0.00316 µM, first compound 0.1 µM): 85.9% | viability, T/C (second compound 0.00316 µM, first compound 0.316 µM): 79.7% | viability, T/C (second compound 0.00316 µM, first compound 1 µM): 75.2% | viability, T/C (second compound 0.00316 µM, first compound 3.16 µM): 67.8% | viability, T/C (second compound 0.00316 µM, first compound 10 µM): 29.5% | viability, T/C (second compound 0.01 µM, first compound 0.0316 µM): 135% | viability, T/C (second compound 0.01 µM, first compound 0.1 µM): 109% | viability, T/C (second compound 0.01 µM, first compound 0.316 µM): 76.9% | viability, T/C (second compound 0.01 µM, first compound 1 µM): 63.2% | viability, T/C (second compound 0.01 µM, first compound 3.16 µM): 67.6% | viability, T/C (second compound 0.01 µM, first compound 10 µM): 20.1% | viability, T/C [1]: 111% | viability, T/C [2]: 108% | viability, T/C [3]: 58.2% | viability, T/C [4]: 60.7% | viability, T/C [5]: 64.6% | viability, T/C [6]: 25.7% | viability, T/C [7]: 95.2% | viability, T/C [8]: 78.6% | viability, T/C [9]: 71.5% | viability, T/C [10]: 75.8% | viability, T/C [11]: 66.8% | viability, T/C [12]: 24.3% | viability, T/C [13]: 78.7% | viability, T/C [14]: 78.7% | viability, T/C [15]: 53.1% | viability, T/C [16]: 54% | viability, T/C [17]: 55.9% | viability, T/C [18]: 26.2% | viability, T/C [19]: 86.9% | viability, T/C [20]: 66.8% | viability, T/C [21]: 67.2% | viability, T/C [22]: 52.8% | viability, T/C [23]: 50.8% | viability, T/C [24]: 14.3%
